Test results as given in patent publication US7223759B2, “Antibacterial 3,5-diaminopiperidine-substituted aromatic and heteroaromatic compounds” (Anadys Pharmaceuticals, Inc., priority 2003, dated 2007).
Where two headings read alike, the source gives them in different places.

System: Escherichia coli (ATCC25922) or Staphylococcus aureus (ATCC25923)
Assay: Antibacterial MIC, microdilution method in Mueller-Hinton medium
Type: cell-based
Details: Escherichia coli, 18 h, read-out: Potency (MIC)
Summary of the method: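 Read after 18 h incubation at 35° C, MIC is the lowest compound level that blocked growth. Compounds were tested in duplicate over 64–0.5 μg/ml two-fold dilutions using Mueller-Hinton microdilution per NCCLS standard.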

[1] = MIC in E. coli or S. aureus, two-fold serial dilutions 64 to 0.5 μg/ml in duplicate, 18 hours of incubation at 35° C.

Row | MIC [1] | Compound | MIC
1 | > 64 µg/mL | COc1ccc(NC(C)=O)cc1Nc1nc(N2C[C@H](N)C[C@H](N)C2)nc(N2C[C@H](N)C[C@H](N)C2)n1 [N-(5-acetylamino-2-methoxy-phenyl)-4,6-Bis-((3R,5S)-3,5-diamino-piperidin-1-yl)-[1,3,5]triazine-2-amine] | –
2 | – | Nc1cncc(Nc2nc(N3C[C@H](N)C[C@H](N)C3)nc(N3C[C@H](N)C[C@H](N)C3)n2)c1 [N-(5-amino-pyridin-3-yl)-4,6-Bis-((3R,5S)-3,5-diamino-piperidin-1-yl)-[1,3,5]triazine-2-amine] | > 64 µg/mL
3 | > 64 µg/mL | Cl.NC(=O)c1[nH]cnc1Nc1nc(N2C[C@H](N)C[C@H](N)C2)nc(N2C[C@H](N)C[C@H](N)C2)n1 [N-(5-carbamoyl-1H-imidazol-4-yl)-4,6-Bis-((3R,5S)-3,5-diamino-piperidin-1-yl)-[1,3,5]triazine-2-amine] | –
4 | > 64 µg/mL | Cl.NC(=O)c1ccc(Nc2nc(N3C[C@H](N)C[C@H](N)C3)nc(N3C[C@H](N)C[C@H](N)C3)n2)nc1 [N-(5-carbamoyl-pyridin-2-yl)-4,6-Bis-((3R,5S)-3,5-diamino-piperidin-1-yl)-[1,3,5]triazine-2-amine] | –
5 | > 64 µg/mL | Cc1ccc(S(=O)(=O)N(C)C)cc1Nc1nc(N2C[C@H](N)C[C@H](N)C2)nc(N2C[C@H](N)C[C@H](N)C2)n1 [N-(5-dimethylsulfamoyl-2-methyl-phenyl)-4,6-Bis-((3R,5S)-3,5-diamino-piperidin-1-yl)-[1,3,5]triazine-2-amine] | –
6 | > 64 µg/mL | Cc1cc(Nc2nc(N3C[C@H](N)C[C@H](N)C3)nc(N3C[C@H](N)C[C@H](N)C3)n2)no1.Cl [N-(5-methyl-isoxazol-3-yl)-4,6-Bis-((3R,5S)-3,5-diamino-piperidin-1-yl)-[1,3,5]triazine-2-amine] | –
7 | > 64 µg/mL | CSc1nnc(Nc2nc(N3C[C@H](N)C[C@H](N)C3)nc(N3C[C@H](N)C[C@H](N)C3)n2)s1.Cl [N-(5-methylsulfanyl-[1,3,4]thiadiazol-2-yl)-4,6-Bis-((3R,5S)-3,5-diamino-piperidin-1-yl)-[1,3,5]triazine-2-amine] | –
8 | – | Cc1cccc(Nc2nc(N3C[C@H](N)C[C@H](N)C3)nc(N3C[C@H](N)C[C@H](N)C3)n2)n1 [N-(6-methyl-pyridin-2-yl)-4,6-Bis-((3R,5S)-3,5-diamino-piperidin-1-yl)-[1,3,5]triazine-2-amine] | > 64 µg/mL
9 | – | N[C@@H]1C[C@H](N)CN(c2nc(Nc3nc4ccc([N+](=O)[O-])cc4s3)nc(N3C[C@H](N)C[C@H](N)C3)n2)C1 [N-(6-nitro-benzothiazol-2-yl)-4,6-Bis-((3R,5S)-3,5-diamino-piperidin-1-yl)-[1,3,5]triazine-2-amine] | < 16 µg/mL
10 | > 64 µg/mL | Cl.Oc1cccc2ccc(Nc3nc(N4CCCCC4)nc(N4CCCCC4)n3)nc12 [N-(8-hydroxy-quinolin-2-yl)-4,6-Bis-((3R,5S)-3,5-diamino-piperidin-1-yl)-[1,3,5]triazine-2-ammine] | –
11 | – | CCn1c2ccccc2c2cc(Nc3nc(N4C[C@H](N)C[C@H](N)C4)nc(N4C[C@H](N)C[C@H](N)C4)n3)ccc21 [N-(9-ethyl-9H-carbazol-3-yl)-4,6-Bis-((3R,5S)-3,5-diamino-piperidin-1-yl)-[1,3,5]triazine-2-amine] | < 64 µg/mL
12 | – | N[C@@H]1C[C@H](N)CN(c2nc(Nc3ccc4c(c3)-c3ccccc3C4=O)nc(N3C[C@H](N)C[C@H](N)C3)n2)C1 [N-(9-oxo-9H-fluoren-3-yl)-4,6-Bis-((3R,5S)-3,5-diamino-piperidin-1-yl)-[1,3,5]triazine-2-amine] | < 16 µg/mL
13 | – | N[C@@H]1C[C@H](N)CN(c2nc(Nc3ccc4c(c3)Cc3ccccc3-4)nc(N3C[C@H](N)C[C@H](N)C3)n2)C1 [N-(9H-fluoren-2-yl)-4,6-Bis-((3R,5S)-3,5-diamino-piperidin-1-yl)-[1,3,5]triazine-2-amine] | < 16 µg/mL
14 | – | C[C@H](Nc1nc(N2C[C@H](N)C[C@H](N)C2)nc(N2C[C@H](N)C[C@H](N)C2)n1)c1cccc2ccccc12 [N-((S)-1-naphthalen-1-yl-ethyl)-4,6-Bis-((3R,5S)-3,5-diamino-piperidin-1-yl)-[1,3,5]triazine-2-amine] | > 64 µg/mL
15 | < 64 µg/mL | Cc1ccc(S(=O)(=O)N(Cc2ccccc2)c2ccc(Nc3nc(NCCCn4ccnc4)nc(N4C[C@H](N)C[C@H](N)C4)n3)cc2O)cc1 [N-Benzyl-N-{4-[4-((3R,5S)-3,5-diamino-piperidin-1-yl)-6-(3-imidazol-1-yl-propylamino)-[1,3,5]triazin-2-ylamino]-2-hydroxy-phenyl}-4-methyl-benzenesulfonamide] | –
16 | – | Cc1ccc(S(=O)(=O)N(Cc2ccccc2)c2ccc(Nc3nc(N4C[C@H](N)C[C@H](N)C4)nc(N4C[C@@H](N)[C@@H](N)C4)n3)cc2O)cc1 [N-Benzyl-N-{4-[4-((3R,5S)-3,5-diamino-piperidin-1-yl)-6-((3R,4S)-3,4-diamino-pyrrolidin-1-yl)-[1,3,5]triazin-2-ylamino]-2-hydroxy-phenyl}-4-methyl-benzenesulfonamide] | < 16 µg/mL
17 | – | Cc1ccc(S(=O)(=O)N(Cc2ccccc2)c2ccc(Nc3nc(N4C[C@H](N)C[C@H](N)C4)nc(N4C[C@@H](O)[C@@H](O)C4)n3)cc2O)cc1 [N-Benzyl-N-{4-[4-((3R,5S)-3,5-diamino-piperidin-1-yl)-6-((3R,4S)-3,4-dihydroxy-pyrrolidin-1-yl)-[1,3,5]triazin-2-ylamino]-2-hydroxy-phenyl}-4-methyl-benzenesulfonamide] | < 64 µg/mL
18 | – | Cc1ccc(S(=O)(=O)N(Cc2ccccc2)c2ccc(Nc3nc(N4C[C@H](N)C[C@H](N)C4)nc(N4C[C@H](O)C[C@@H](O)C4)n3)cc2O)cc1 [N-Benzyl-N-{4-[4-((3R,5S)-3,5-diamino-piperidin-1-yl)-6-((3R,5R)-3,5-dihydroxy-piperidin-1-yl)-[1,3,5]triazin-2-ylamino]-2-hydroxy-phenyl}-4-methyl-benzenesulfonamide] | < 64 µg/mL
19 | – | Cc1ccc(S(=O)(=O)N(Cc2ccccc2)c2ccc(Nc3nc(N4C[C@H](N)C[C@H](N)C4)nc(N4CCC[C@@H](O)C4)n3)c(O)c2)cc1 [N-Benzyl-N-{4-[4-((3R,5S)-3,5-diamino-piperidin-1-yl)-6-((R)-3-hydroxy-piperidin-1-yl)-[1,3,5]triazin-2-ylamino]-3-hydroxy-phenyl}-4-methyl-benzenesulfonamide] | < 64 µg/mL
20 | – | Cc1ccc(S(=O)(=O)N(Cc2ccccc2)c2ccc(Nc3nc(NC4CCCNC4)nc(N4C[C@H](N)C[C@H](N)C4)n3)cc2O)cc1 (stereo partly drawn) [N-Benzyl-N-{4-[4-((3R,5S)-3,5-diamino-piperidin-1-yl)-6-(piperidin-3-ylamino)-[1,3,5]triazin-2-ylamino]-2-hydroxy-phenyl}-4-methyl-benzenesulfonamide] | < 64 µg/mL
21 | < 64 µg/mL | Cc1ccc(S(=O)(=O)N(Cc2ccccc2)c2ccc(Nc3nc(NC4CCNCC4)nc(N4C[C@H](N)C[C@H](N)C4)n3)cc2O)cc1 [N-Benzyl-N-{4-[4-((3R,5S)-3,5-diamino-piperidin-1-yl)-6-(piperidin-4-ylamino)-[1,3,5]triazin-2-ylamino]-2-hydroxy-phenyl}-4-methyl-benzenesulfonamide] | –
22 | < 16 µg/mL | COc1nc(Nc2ccc(N(Cc3ccccc3)S(=O)(=O)c3ccc(C)cc3)c(O)c2)nc(N2CCCCC2)n1.Cl [N-Benzyl-N-{4-[4-((3R,5S)-3,5-diamino-piperidin-1-yl)-6-methoxy-[1,3,5]triazin-2-ylammino]-2-hydroxy-phenyl}-4-methyl-benzenesulfonamide] | –
23 | < 64 µg/mL | Cc1ccc(S(=O)(=O)N(Cc2ccccc2)c2ccc(Nc3nc(N4CCNCC4)nc(N4C[C@H](N)C[C@H](N)C4)n3)cc2O)cc1 [N-Benzyl-N-{4-[4-((3R,5S)-3,5-diamino-piperidin-1-yl)-6-piperazin-1-yl-[1,3,5]triazin-2-ylamino]-2-hydroxy-phenyl}-4-methyl-benzenesulfonamide] | –
24 | < 16 µg/mL | Cc1ccc(S(=O)(=O)N(Cc2ccccc2)c2ccc(Nc3nc(N4CCCCC4)nc(N4CCN(c5ccncc5)CC4)n3)cc2O)cc1.Cl [N-Benzyl-N-{4-[4-((3R,5SD)-3,5-diamino-piperidin-1-yl)-6-(4-pyridin-4-yl-piperazin-1-yl)-[1,3,5]triazin-2-ylamino]-2-hydroxy-phenyl}-4-methyl-benzenesulfonamide] | –
25 | – | Cc1ccc(S(=O)(=O)N(Cc2ccccc2)c2ccc(Nc3nc(N4C[C@H](N)C[C@H](N)C4)nc(N4C[C@H](CN)C[C@H](CN)C4)n3)c(O)c2)cc1 [N-Benzyl-N-{4-[4-((3S,5R)-3,5-bis-(aminomethyl)-piperidin-1-yl)-6-((3R,5S)-3,5-diamino-piperidin-1-yl)-[1,3,5]triazin-2-ylamino]-3-hydroxy-phenyl}-4-methyl-benzenesulfonamide] | < 64 µg/mL
26 | – | Cc1ccc(S(=O)(=O)N(Cc2ccccc2)c2ccc(Nc3nc(N(CCN)CCN)nc(N4C[C@H](N)C[C@H](N)C4)n3)c(O)c2)cc1 [N-Benzyl-N-{4-[4-[bis-(2-amino-ethyl)-amino]-6-((3R,5S)-3,5-diamino-piperidin-1-yl)-[1,3,5]triazin-2-ylamino]-3-hydroxy-phenyl}-4-methyl-benzenesulfonamide] | < 64 µg/mL
27 | > 64 µg/mL | CN1CCCC1CCNc1nc(N2C[C@H](N)C[C@H](N)C2)nc(N2C[C@H](N)C[C@H](N)C2)n1.Cl (stereo partly drawn) [N-[2-(1-medthyl-pyrrolidin-2-yl)-ethyl]-4,6-Bis-((3R,5S)-3,5-diamino-piperidin-1-yl)-[1,3,5]triazine-2-amine] | –
28 | – | COc1ccc(NC(=O)c2cccc(O)c2O)c(Nc2nc(N3C[C@H](N)C[C@H](N)C3)nc(N3C[C@H](N)C[C@H](N)C3)n2)c1 [N-[2-(2,3-dihydroxy-benzoylamino)-5-methoxy-phenyl]-4,6-Bis-((3R,5S)-3,5-diamino-piperidin-1-yl)-[1,3,5]triazine-2-amine] | > 64 µg/mL

Row | Compound | MIC [1] | MIC
29 | N[C@@H]1C[C@H](N)CN(c2nc(Nc3ccc(O)c4ncccc34)nc(N3C[C@H](N)C[C@H](N)C3)n2)C1 [N-(8-hydroxy-quinolin-5-yl)-4,6-Bis-((3R,5S)-3,5-diamino-piperidin-1-yl)-[1,3,5]triazine-2-amine] | < 64 µg/mL | < 16 µg/mL
